The values that follow come from patent publication US10947227B2, “Tricyclic heterocyclic compounds as sting activators” (Incyte Corporation, priority 2018, dated 2021).

For one experiment, the system named is established tumors. The following applies: preclinical mouse models; cited from earlier work.
The target of the next experiment is human STING (Homo sapiens, UniProt Q86WV6). The following applies: cited from earlier work.
Experiment [1] relates to IRF3 activation in THP-1 Dual Cells. The experiment can be described thus: IRF3 activation assay in THP-1 Dual Cells (QUANTI-Blue readout). The note with it: Homo sapiens, THP1-Dual, 24 h, Table 2, 24 hours incubation. Type of experiment: cell-based. In outline: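 THP-1 Dual cells (100,000/well) were incubated with serially diluted compounds 24 h at 37 °C. […]; EC50 from percent control activity versus log concentration.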

What is called EC50 is the concentration that produces a half-maximal response. Low readings indicate a more potent agent, high ones a less potent agent.

Chain of human STING (Q86WV6 whole entry H232R): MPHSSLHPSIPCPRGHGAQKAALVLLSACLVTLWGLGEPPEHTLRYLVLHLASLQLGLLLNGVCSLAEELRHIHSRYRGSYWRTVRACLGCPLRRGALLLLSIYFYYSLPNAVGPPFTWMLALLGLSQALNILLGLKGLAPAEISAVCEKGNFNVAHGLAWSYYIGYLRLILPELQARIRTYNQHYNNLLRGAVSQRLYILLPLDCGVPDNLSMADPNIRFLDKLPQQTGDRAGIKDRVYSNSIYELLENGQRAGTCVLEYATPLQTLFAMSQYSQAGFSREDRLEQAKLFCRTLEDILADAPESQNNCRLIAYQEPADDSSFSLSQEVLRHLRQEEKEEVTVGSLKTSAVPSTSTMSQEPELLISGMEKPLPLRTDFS

In the case of `Cc1ccc2c(=O)c3cccc(CC(=O)O)c3oc2c1C` [DMXAA, 5,6-dimethylxanthenone-4-acetic acid], the anti-tumor activity result with established tumors is “excellent anti-tumor activity”. Further, the “bind and activate human STING” value at human STING was “not human STING”.

The compound `CCn1nc(C)cc1C(=O)Nc1nc2cc(C(N)=O)cc(OCCCNC(=O)CCC(=O)O)c2n1C/C=C/Cn1c2nc(-c3cc(C)nn3CC)ncc2c2cc(C(N)=O)cc(OCCCOC)c21` [Example 59, (E)-4-((3-((5-carbamoyl-1-(4-(6-carbamoyl-2-(1-ethyl-3-methyl-1H-pyrazol-5-yl)-8-(3-methoxypropoxy)-9H-pyrimido[4,5-b]indol-9-yl)but-2-en-1-yl)-2-(1-ethyl-3-methyl-1H-pyrazole-5-carboxamido)-1H-benzo[d]imidazol-7-yl)oxy)propyl)amino)-4-oxobutanoic Acid] returned an EC50 in experiment [1] of 50 to 200 nM.
